The values below come from ChEMBL document CHEMBL4400520, “Benzofuran-isatin-imine hybrids tethered via different length alkyl linkers: Design, synthesis and in vitro evaluation of anti-tubercular and anti-bacterial activities as well as cytotoxicity” (Eur J Med Chem, 2019).

By AUC(0-inf) is commonly meant the area under the concentration-time curve extrapolated to infinity. One may read the half-life as how long it takes for the measured level to halve. Broadly, the Tmax is the time at which the peak concentration occurs. What is called MIC is the least concentration at which growth counts as inhibited. As usually defined, the CC50 is the concentration giving 50% cytotoxicity. Broadly, the Cmax is the maximum level reached in the sampled fluid or tissue. What is called MIC90 is the lowest concentration that inhibits either 90% of growth or 90% of the strains tested, depending on the study.

A short description of series [1]: AUC (0 to infinity) in ICR mouse at 25 mg/kg, po. Format: ADME, organism-based. Further details: dose 25 mg/kg, time infinity, route oral. The note with it: in vivo.
Series [2] is described as follows: Half life in ICR mouse at 25 mg/kg, po. Format: ADME, organism-based. The following applies: in vivo.
The nature of series [3]: Metabolic stability in mouse assessed as half life. Format: ADME.
The nature of series [4]: Selectivity index, ratio of CC50 for African green monkey Vero cells to MIC for Mycobacterium tuberculosis H37Rv. The note with it: read-out: Selectivity Index. Format: toxicity.
Series [5] can be described thus: Tmax in ICR mouse at 25 mg/kg, po. Format: ADME, organism-based. The note with it: in vivo.
Series [6] relates to Mycobacterium tuberculosis. The series is described as follows: Antitubercular activity against Mycobacterium tuberculosis H37Rv. Format: functional.
Series [7] is described as follows: (§1) Cytotoxicity against African green monkey Vero cells assessed as reduction in cell viability after 72 hrs by MTT assay. Format: cell-based. The following applies: chlorocebus sabaeus, Vero cells. (In general: Tetrazolium dyes change colour on reduction, which living cells bring about.)
A short description of series [8]: Cmax in ICR mouse at 25 mg/kg, po. Format: ADME, organism-based. Further details: dose 25 mg/kg, route oral. The note with it: in vivo.
The next series relates to Citrobacter freundii. The series is described as follows: Antibacterial activity against Citrobacter freundii. Format: functional.
For another series, the system named is Klebsiella pneumoniae. The series is described as follows: Antibacterial activity against Klebsiella pneumoniae. Format: functional.
Another series relates to Escherichia coli. The series is described as follows: Antibacterial activity against Escherichia coli. Format: functional.
The subject of series [9] is Staphylococcus epidermidis. The series is described as follows: Antibacterial activity against methicillin-sensitive Staphylococcus epidermidis. Format: functional.
The subject of the next series is Enterococcus faecalis. The series is described as follows: Antibacterial activity against Enterococcus faecalis. Format: functional.
Series [10] concerns Staphylococcus epidermidis. The series is described as follows: Antibacterial activity against methicillin-resistant Staphylococcus epidermidis. Format: functional.
The test system of series [11] is Acinetobacter calcoaceticus. The series is described as follows: Antibacterial activity against Acinetobacter calcoaceticus. Format: functional.
Series [12] has as its system Staphylococcus aureus. The series is described as follows: Antibacterial activity against methicillin-sensitive Staphylococcus aureus. Format: functional.
In a further series the test system is Pseudomonas aeruginosa. The series is described as follows: Antibacterial activity against Pseudomonas aeruginosa ATCC 27853. Format: functional.
In series [13] the test system is Staphylococcus aureus. The series is described as follows: Antibacterial activity against methicillin-resistant Staphylococcus aureus. Format: functional.
The subject of the next series is Klebsiella aerogenes. The series is described as follows: Antibacterial activity against Enterobacter aerogenes. Format: functional.
The next series relates to Enterococcus faecium. The series is described as follows: Antibacterial activity against Enterococcus faecium. Format: functional.
For another series, the system named is Proteus mirabilis. The series is described as follows: Antibacterial activity against Proteus mirabilis. Format: functional.
A further series has as its system Vero. The description is as §1. Format: cell-based. The following applies: chlorocebus sabaeus, vero, 72 h.
The subject of another series is Enterobacter cloacae. The series is described as follows: Antibacterial activity against Enterobacter cloacae. Format: functional.

Molecules are shown by their SMILES. Values after ≈ are worked out from the molar mass of the structure shown.

As to `CNC(=O)c1c(-c2ccc(O)cc2)oc2ccc(O)c(CN3CCCCC3)c12`, the AUC(0-inf) in series [1] stood at 39300 ng·h/mL. Further, the half-life was 9.88 h in series [2] and > 1 h in [3]. Also, the selectivity ratio in series [4] was > 64000. The Tmax in [5] stood at 3.46 h. For the same compound, in [6], the MIC is < 0.016 µg/mL. Further, the CC50 at 72 h in [7] was > 1020 µg/mL. In series [8], this compound came in with a Cmax of 5060 ng/mL.
For `O=C(O)c1cn(C2CC2)c2cc(N3CCNCC3)c(F)cc2c1=O` [CIPROFLOXACIN], the MIC90 with Citrobacter freundii came out at 0.03 µg/mL (≈ 0.0905 µM); against Klebsiella pneumoniae, 0.5 µg/mL (≈ 1.51 µM); in the series with Escherichia coli, 0.06 µg/mL (≈ 0.181 µM); in [9], 0.125 µg/mL (≈ 0.377 µM); with Enterococcus faecalis it was 0.5 µg/mL (≈ 1.51 µM); in series [10], 4 µg/mL (≈ 12.1 µM). In addition, the MIC90 in [11] is 0.5 µg/mL (≈ 1.51 µM); against Staphylococcus aureus [12], 0.25 µg/mL (≈ 0.754 µM); in the series with Pseudomonas aeruginosa, 0.25 µg/mL (≈ 0.754 µM); in the series on Staphylococcus aureus [13], 0.25 µg/mL (≈ 0.754 µM); with Klebsiella aerogenes it was 0.06 µg/mL (≈ 0.181 µM); in the series with Enterococcus faecium, 8 µg/mL (≈ 24.1 µM). For the same compound, the MIC90 in the series on Proteus mirabilis was ≤ 0.03 µg/mL. The AUC(0-inf) in series [1] came out at 17800 ng·h/mL. In addition, in series [5], the Tmax came out at 1.8 h. In [6], this compound registered a minimal inhibitory concentration (MIC) of 0.291 µg/mL (≈ 0.878 µM). Moreover, the CC50 at 72 h in series [7] was found to be 512 µg/mL (≈ 1550 µM). Further, in series [8], the Cmax came to 3130 ng/mL.
On to `CCOC(=O)c1c(-c2ccccc2)oc2ccc(OCCCCN3C(=O)/C(=N\OC)c4cc(F)ccc43)cc12`, for which the MIC90 against Citrobacter freundii was 0.25 µg/mL (≈ 0.471 µM); against Klebsiella pneumoniae it was 0.25 µg/mL (≈ 0.471 µM); against Escherichia coli it was 0.125 µg/mL (≈ 0.236 µM); in series [9], 0.25 µg/mL (≈ 0.471 µM); against Enterococcus faecalis, 2 µg/mL (≈ 3.77 µM); in series [10], 1 µg/mL (≈ 1.88 µM). The MIC90 in series [11] was 1 µg/mL (≈ 1.88 µM); against Staphylococcus aureus [12] it was 1 µg/mL (≈ 1.88 µM); against Pseudomonas aeruginosa it was 0.5 µg/mL (≈ 0.942 µM); against Staphylococcus aureus [13], 2 µg/mL (≈ 3.77 µM); with Klebsiella aerogenes, 0.125 µg/mL (≈ 0.236 µM); against Enterococcus faecium, 8 µg/mL (≈ 15.1 µM). Besides, the MIC90 is 0.25 µg/mL (≈ 0.471 µM) against Proteus mirabilis and 1 µg/mL (≈ 1.88 µM) with Enterobacter cloacae. In series [4], the selectivity ratio stood at 516. This compound also yielded an MIC in series [6] of 0.062 µg/mL (≈ 0.117 µM). Also, in the series with Vero, the CC50 stood at 64 µg/mL (≈ 121 µM).
`CCO/N=C1\C(=O)N(CCCCOc2ccc3oc(-c4ccc(OC)cc4)c(C(=O)OCC)c3c2)c2ccc(F)cc21`: the MIC90 against Citrobacter freundii was found to be 0.5 µg/mL (≈ 0.87 µM); in the series on Klebsiella pneumoniae, 2 µg/mL (≈ 3.48 µM); against Escherichia coli, 0.5 µg/mL (≈ 0.87 µM); in series [9], 1 µg/mL (≈ 1.74 µM); in the series on Enterococcus faecalis it was 4 µg/mL (≈ 6.96 µM); in [10] it was 16 µg/mL (≈ 27.8 µM). The MIC90 in [11] is 8 µg/mL (≈ 13.9 µM); in the series with Staphylococcus aureus [12] it was 8 µg/mL (≈ 13.9 µM); in the series with Pseudomonas aeruginosa, 8 µg/mL (≈ 13.9 µM); with Staphylococcus aureus [13] it was 4 µg/mL (≈ 6.96 µM); against Klebsiella aerogenes, 0.5 µg/mL (≈ 0.87 µM); in the series on Enterococcus faecium, 32 µg/mL (≈ 55.7 µM). Moreover, the MIC90 with Proteus mirabilis and in the series with Enterobacter cloacae was 0.25 µg/mL (≈ 0.435 µM) in each case. The selectivity ratio in series [4] stood at 410. For the same compound, the MIC in [6] turned out to be 0.156 µg/mL (≈ 0.271 µM). Besides, the CC50 in the series on Vero was 32 µg/mL (≈ 55.7 µM).
On to `CCOC(=O)c1c(-c2ccc(OC)cc2)oc2ccc(OCCCCN3C(=O)/C(=N\OC)c4ccccc43)cc12`, for which the MIC90 turned out to be 0.25 µg/mL (≈ 0.461 µM) against Citrobacter freundii; 0.25 µg/mL (≈ 0.461 µM) in the series with Klebsiella pneumoniae; 0.5 µg/mL (≈ 0.922 µM) with Escherichia coli; 0.125 µg/mL (≈ 0.23 µM) in series [9]; 1 µg/mL (≈ 1.84 µM) in the series with Enterococcus faecalis; 0.5 µg/mL (≈ 0.922 µM) in [10]. Besides, the MIC90 was 1 µg/mL (≈ 1.84 µM) in series [11]; 1 µg/mL (≈ 1.84 µM) against Staphylococcus aureus [12]; 4 µg/mL (≈ 7.37 µM) in the series with Pseudomonas aeruginosa; 1 µg/mL (≈ 1.84 µM) with Staphylococcus aureus [13]; 0.06 µg/mL (≈ 0.111 µM) against Klebsiella aerogenes; 8 µg/mL (≈ 14.7 µM) with Enterococcus faecium. The MIC90 in the series on Proteus mirabilis amounted to 0.125 µg/mL (≈ 0.23 µM); in the series with Enterobacter cloacae, 0.25 µg/mL (≈ 0.461 µM). This compound also gave an AUC(0-inf) in series [1] of 3020 ng·h/mL. Further, the values for the half-life in [2] and in series [3] were 3.33 h and 0.32 h, respectively. In series [4], the selectivity ratio was > 2000. The Tmax in series [5] turned out to be 1.65 h. Also, the MIC in [6] is < 0.016 µg/mL. The CC50 at 72 h in series [7] came to 32 µg/mL (≈ 59 µM). In series [8], the concentration peaked (Cmax) at 927 ng/mL.
